Experimental data: patent US11814445B2, “Cyclic polypeptides for PCSK9 inhibition” (Ra Pharmaceuticals, Inc., priority 2018, dated 2023)
Numbered stars: 1 amine (or outer) side, 2 acyl side, 3 side chain; on linkers, the order of the positions; unused ones are H or OH. Bridge positions count the residues as written; N and C are the ends. Square brackets hold non-standard residues; d marks the D form. Peptide text beside a SMILES is read from it. ξ: configuration not given here. Phe(4-CF3) = N[C@@H](Cc1ccc(C(F)(F)F)cc1)C(=O)O; Trp(5-F) = N[C@@H](Cc1c[nH]c2ccc(F)cc12)C(=O)O; Pro(trans-4-F) = O=C(O)[C@@H]1C[C@@H](F)CN1; X8 = O=C(CCCCCSCc1cccc(CSCCN[*:1])c1)[*:2]; Phe(4-CN) = N#Cc1ccc(C[C@H](N)C(=O)O)cc1; Phe(4-Cl) = N[C@@H](Cc1ccc(Cl)cc1)C(=O)O; Pro(cis-4-F) = O=C(O)[C@@H]1C[C@H](F)CN1; X1 = O=C(CCSCc1cccc(CSCCN[*:1])c1)[*:2]; 1Nal = N[C@@H](Cc1cccc2ccccc12)C(=O)O; 2Nal = N[C@@H](Cc1ccc2ccccc2c1)C(=O)O; mXylylene = c1cc(C[*:1])cc(C[*:2])c1; NBzl(4-I)Gly = O=C(O)CNCc1ccc(I)cc1; NMeY = CN[C@@H](Cc1ccc(O)cc1)C(=O)O; NMeF = CN[C@@H](Cc1ccccc1)C(=O)O; 2Pal = N[C@@H](Cc1ccccn1)C(=O)O; Tic = O=C(O)[C@@H]1Cc2ccccc2CN1; Cha = N[C@@H](CC1CCCCC1)C(=O)O; αMeP = C[C@@]1(C(=O)O)CCCN1; Pip = O=C(O)[C@@H]1CCCCN1; Ac5c = NC1(C(=O)O)CCCC1; Aib = CC(C)(N)C(=O)O; ξP = O=C(O)C1CCCN1; Mpa = O=C(O)CCS

Each compound was assayed against human PCSK9 / human LDLR EGFa domain (Homo sapiens, UniProt Q8NBP7) (assay: TR-FRET assay of inhibition of the PCSK9-LDLR protein-protein interaction). Settings: 20 nM human PCSK9, 20 nM human LDLR EGFa domain, 2 hours room temperature.
Type: binding
Experimental: A time-resolved fluorescence resonance energy (TR-FRET) assay was used to measure inhibition of the PCSK9-LDLR protein-protein interaction. Briefly, 20 nM avitag-biotinylated human PCSK9 was incubated with 20 nM his-tagged human LDLR EGFa domain in the presence of 5 nM LANCE Ulight Streptavidin (Perkin Elmer) and 5 nM europium-Anti-6×His (Perkin Elmer) for 2 hours covered at room temperature in buffer containing 50 mM HEPES, 150 mM NaCl, 5 mM CaCl2), 0.01% BSA and 0.01% Surfactant P20. Compounds were tested in dose-response and concentrations giving half-maximal inhibition calculated using a 4-parameter fit equation.

human PCSK9 / human LDLR EGFa domain, sequence (Q8NBP7 153-692): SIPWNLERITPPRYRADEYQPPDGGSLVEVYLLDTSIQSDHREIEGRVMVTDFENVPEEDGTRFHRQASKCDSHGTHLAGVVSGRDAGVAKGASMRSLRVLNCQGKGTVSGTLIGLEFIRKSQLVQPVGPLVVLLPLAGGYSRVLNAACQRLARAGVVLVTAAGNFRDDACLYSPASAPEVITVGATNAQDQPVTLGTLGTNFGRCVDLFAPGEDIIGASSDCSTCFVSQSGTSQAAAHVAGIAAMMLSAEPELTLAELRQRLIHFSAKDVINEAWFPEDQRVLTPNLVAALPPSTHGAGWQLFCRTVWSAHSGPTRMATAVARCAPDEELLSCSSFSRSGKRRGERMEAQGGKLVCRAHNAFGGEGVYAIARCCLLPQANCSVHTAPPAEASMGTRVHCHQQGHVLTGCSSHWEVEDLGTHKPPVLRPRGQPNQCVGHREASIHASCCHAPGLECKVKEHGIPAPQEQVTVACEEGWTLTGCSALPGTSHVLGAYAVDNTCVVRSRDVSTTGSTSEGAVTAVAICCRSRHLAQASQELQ

SMILES	IC50
C[C@@H]1NC(=O)[C@@H]2CCCN2C(=O)[C@H](Cc2c[nH]c3ccc(F)cc23)NC(=O)[C@H](Cc2c[nH]c3ccc(F)cc23)NC(=O)CNC(=O)[C@H](CCCCN)NC(=O)CCSCc2cccc(c2)CSC[C@@H](C(N)=O)NC(=O)[C@@H]2CCCN2C(=O)[C@@H]2CCCN2C1=O [Compound 032] ([Mpa]KG[Trp(5-F)][Trp(5-F)]PAPPC-NH2; linker 1-10 via mXylylene)	100 to 1000 nM
C[C@@H]1NC(=O)[C@@H]2CCCN2C(=O)[C@H](Cc2ccc(C(F)(F)F)cc2)NC(=O)[C@H](Cc2c[nH]c3ccc(F)cc23)NC(=O)CNC(=O)[C@H](CCCCN)NC(=O)CCSCc2cccc(c2)CSC[C@@H](C(N)=O)NC(=O)[C@@H]2CCCN2C(=O)[C@H](Cc2ccc(O)cc2)NC1=O [Compound 007] ([Mpa]KG[Trp(5-F)][Phe(4-CF3)]PAYPC-NH2; linker 1-10 via mXylylene)	1000 to 12100 nM
C[C@@H]1NC(=O)[C@@H]2CCCCN2C(=O)[C@H](Cc2c[nH]c3ccc(F)cc23)NC(=O)[C@H](Cc2c[nH]c3ccc(F)cc23)NC(=O)[C@@H](C)NC(=O)[C@H](CCCCN)NC(=O)CCSCc2cccc(c2)CSC[C@@H](C(N)=O)NC(=O)[C@@H]2CCCN2C(=O)[C@H](Cc2ccc(O)cc2)NC1=O [Compound 035] ([Mpa]K[dA][Trp(5-F)][Trp(5-F)][Pip]AYPC-NH2; linker 1-10 via mXylylene)	100 to 1000 nM
C[C@@H]1NC(=O)[C@@H]2CCCN2C(=O)[C@H](Cc2c[nH]c3ccc(F)cc23)NC(=O)[C@H](Cc2c[nH]c3ccc(F)cc23)NC(=O)[C@@H](C)NC(=O)[C@H](CCCCN)NC(=O)CCSCc2cccc(c2)CSCCNC(=O)[C@]2(C)CCCN2C(=O)[C@H](Cc2ccc(O)cc2)NC1=O [Compound 003] (cyclo(AY[αMeP][X1]K[dA][Trp(5-F)][Trp(5-F)]P))	1000 to 12100 nM
C[C@@H]1NC(=O)[C@@H]2C[C@@H](F)CN2C(=O)[C@H](Cc2c[nH]c3ccc(F)cc23)NC(=O)[C@H](Cc2c[nH]c3ccc(F)cc23)NC(=O)[C@@H](C)NC(=O)[C@H](CCCCN)NC(=O)CCSCc2cccc(c2)CSC[C@@H](C(N)=O)NC(=O)[C@@H]2CCCN2C(=O)[C@H](Cc2ccc(O)cc2)NC1=O [Compound 037] ([Mpa]K[dA][Trp(5-F)][Trp(5-F)][Pro(trans-4-F)]AYPC-NH2; linker 1-10 via mXylylene)	100 to 1000 nM
C[C@@H]1NC(=O)CCSCc2cccc(c2)CSCCNC(=O)[C@@H]2CCCN2C(=O)[C@H](Cc2cccc3ccccc23)NC(=O)[C@H](C)NC(=O)[C@@H]2CCCN2C(=O)[C@H](Cc2c[nH]c3ccc(F)cc23)NC(=O)[C@H](Cc2c[nH]c3ccc(F)cc23)NC(=O)[C@@H](C)NC1=O [Compound 065] (cyclo([1Nal]P[X1]A[dA][Trp(5-F)][Trp(5-F)]PA))	21000 to 50000 nM
C[C@@H]1NC(=O)[C@@H]2CCCN2C(=O)[C@H](Cc2ccccn2)NC(=O)[C@H](Cc2c[nH]c3ccc(F)cc23)NC(=O)CNC(=O)[C@H](CCCCN)NC(=O)CCSCc2cccc(c2)CSC[C@@H](C(N)=O)NC(=O)[C@@H]2CCCN2C(=O)[C@H](Cc2ccc(O)cc2)NC1=O [Compound 019] ([Mpa]KG[Trp(5-F)][2Pal]PAYPC-NH2; linker 1-10 via mXylylene)	21000 to 50000 nM
C[C@@H]1NC(=O)[C@@H]2CCCN2C(=O)[C@H](Cc2c[nH]c3ccc(F)cc23)NC(=O)[C@H](Cc2cccc3ccccc23)NC(=O)[C@@H](C)NC(=O)[C@@H]2CCCN2C(=O)CCSCc2cccc(c2)CSCCNC(=O)[C@@H]2CCCN2C(=O)[C@H](Cc2cccc3ccccc23)NC1=O [Compound 055] (cyclo([1Nal]P[X1]P[dA][1Nal][Trp(5-F)]PA))	1000 to 12100 nM
C[C@@H]1NC(=O)[C@@H]2CCCN2C(=O)[C@H](Cc2ccc(Cl)cc2)NC(=O)[C@H](Cc2c[nH]c3ccc(F)cc23)NC(=O)CNC(=O)[C@H](CCCCN)NC(=O)CCSCc2cccc(c2)CSC[C@@H](C(N)=O)NC(=O)[C@@H]2CCCN2C(=O)[C@H](Cc2ccc(O)cc2)NC1=O [Compound 004] ([Mpa]KG[Trp(5-F)][Phe(4-Cl)]PAYPC-NH2; linker 1-10 via mXylylene)	1000 to 12100 nM
C[C@@H]1NC(=O)[C@@H]2CCCN2C(=O)[C@H](Cc2c[nH]c3ccc(F)cc23)NC(=O)[C@H](Cc2c[nH]c3ccc(F)cc23)NC(=O)[C@@H](C)NC(=O)[C@@H]2CCCN2C(=O)CCSCc2cccc(c2)CSCCNC(=O)[C@@H]2CCCN2C(=O)[C@H](Cc2ccc(O)cc2)N(C)C1=O [Compound 052] (cyclo(A[NMeY]P[X1]P[dA][Trp(5-F)][Trp(5-F)]P))	100 to 1000 nM
C[C@@H]1NC(=O)[C@@H]2CCCN2C(=O)[C@H](Cc2c[nH]c3ccc(F)cc23)NC(=O)[C@H](Cc2c[nH]c3ccc(F)cc23)NC(=O)[C@@H](C)NC(=O)C2(CCCC2)NC(=O)CCSCc2cccc(c2)CSCCNC(=O)[C@@H]2CCCN2C(=O)[C@H](Cc2ccc(O)cc2)NC1=O [Compound 030] (cyclo(AYP[X1][Ac5c][dA][Trp(5-F)][Trp(5-F)]P))	100 to 1000 nM
C[C@@H]1NC(=O)[C@@H]2C[C@H](F)CN2C(=O)[C@H](Cc2c[nH]c3ccc(F)cc23)NC(=O)[C@H](Cc2c[nH]c3ccc(F)cc23)NC(=O)CNC(=O)[C@H](CCCCN)NC(=O)CCSCc2cccc(c2)CSC[C@@H](C(N)=O)NC(=O)[C@@H]2CCCN2C(=O)[C@H](Cc2ccc(O)cc2)NC1=O [Compound 002] ([Mpa]KG[Trp(5-F)][Trp(5-F)][Pro(cis-4-F)]AYPC-NH2; linker 1-10 via mXylylene)	1 to 100 nM
C[C@@H]1NC(=O)CCSCc2cccc(c2)CSCCNC(=O)[C@@H]2CCCN2C(=O)[C@H](Cc2ccccc2)N(C)C(=O)[C@H](C)NC(=O)[C@@H]2CCCN2C(=O)[C@H](Cc2c[nH]c3ccc(F)cc23)NC(=O)[C@H](Cc2cccc3ccccc23)NC(=O)[C@@H](C)NC1=O [Compound 067] (cyclo([1Nal][Trp(5-F)]PA[NMeF]P[X1]A[dA]))	1000 to 12100 nM
C[C@@H]1NC(=O)[C@@H]2CCCN2C(=O)CN(Cc2ccc(I)cc2)C(=O)[C@H](Cc2c[nH]c3ccc(F)cc23)NC(=O)CNC(=O)[C@H](CCCCN)NC(=O)CCSCc2cccc(c2)CSC[C@@H](C(N)=O)NC(=O)[C@@H]2CCCN2C(=O)[C@H](Cc2ccc(O)cc2)NC1=O [Compound 010] ([Mpa]KG[Trp(5-F)][NBzl(4-I)Gly]PAYPC-NH2; linker 1-10 via mXylylene)	100 to 1000 nM

Continued, values first:

IC50	SMILES
100 to 1000 nM	C[C@@H]1NC(=O)CNC(=O)[C@H](CCCCN)NC(=O)CCSCc2cccc(c2)CSC[C@@H](C(N)=O)NC(=O)[C@@H]2CCCN2C(=O)[C@H](Cc2ccc(O)cc2)NC(=O)[C@H](Cc2cnc[nH]2)NC(=O)[C@H](CC(=O)O)NC(=O)[C@H](Cc2c[nH]c3ccc(F)cc23)NC1=O [Compound 112] ([Mpa]KGA[Trp(5-F)]DHYPC-NH2; linker 1-10 via mXylylene)
1000 to 12100 nM	C[C@@H]1NC(=O)CCSCc2cccc(c2)CSC[C@@H](C(N)=O)NC(=O)[C@@H]2CCCN2C(=O)[C@H](Cc2ccc(C#N)cc2)NC(=O)[C@H](C)NC(=O)[C@@H]2CCCN2C(=O)[C@H](Cc2c[nH]c3ccc(F)cc23)NC(=O)[C@H](Cc2c[nH]c3ccc(F)cc23)NC(=O)[C@@H](C)NC1=O [Compound 081] ([Mpa]A[dA][Trp(5-F)][Trp(5-F)]PA[Phe(4-CN)]PC-NH2; linker 1-10 via mXylylene)
100 to 1000 nM	C[C@@H]1NC(=O)[C@@H]2CCCN2C(=O)[C@H](Cc2c[nH]c3ccc(F)cc23)NC(=O)[C@H](Cc2c[nH]c3ccc(F)cc23)NC(=O)CNC(=O)CCCCCSCc2cccc(c2)CSCCNC(=O)C2CCCN2C(=O)[C@H](Cc2ccc(O)cc2)NC1=O (some centres unmarked) [Compound 098] (cyclo(AY[ξP][X8]G[Trp(5-F)][Trp(5-F)]P))
100 to 1000 nM	C[C@@H](O)[C@@H]1NC(=O)CNC(=O)[C@H](CCCCN)NC(=O)CCSCc2cccc(c2)CSCCNC(=O)[C@]2(C)CCCN2C(=O)[C@H](Cc2ccc(O)cc2)NC(=O)[C@H](Cc2cnc[nH]2)NC(=O)[C@@H]2CCCN2C(=O)[C@H](Cc2c[nH]c3ccc(F)cc23)NC1=O [Compound 105] (cyclo(GT[Trp(5-F)]PHY[αMeP][X1]K))
100 to 1000 nM	C[C@@H]1NC(=O)CCSCc2cccc(c2)CSCCNC(=O)[C@@H]2CCCN2C(=O)[C@H](Cc2ccc(O)cc2)NC(=O)[C@H](C)NC(=O)[C@@H]2Cc3ccccc3CN2C(=O)[C@H](Cc2c[nH]c3ccc(F)cc23)NC(=O)[C@H](Cc2c[nH]c3ccc(F)cc23)NC(=O)[C@@H](C)NC1=O [Compound 091] (cyclo(AYP[X1]A[dA][Trp(5-F)][Trp(5-F)][Tic]))
1000 to 12100 nM	C[C@@]12CCCN1C(=O)[C@H](Cc1ccc(O)cc1)NC(=O)[C@H](Cc1cnc[nH]1)NC(=O)[C@@H]1CCCN1C(=O)[C@H](Cc1c[nH]c3ccc(F)cc13)NC(=O)[C@H](CC1CCCCC1)NC(=O)CNC(=O)[C@H](CCCCN)NC(=O)CCSCc1cccc(c1)CSCCNC2=O [Compound 104] (cyclo([Cha][Trp(5-F)]PHY[αMeP][X1]KG))
1000 to 12100 nM	CN1C(=O)[C@H](Cc2cnc[nH]2)NC(=O)C(C)(C)NC(=O)[C@H](Cc2c[nH]c3ccc(F)cc23)NC(=O)[C@H](Cc2c[nH]c3ccc(F)cc23)NC(=O)CNC(=O)[C@H](CCCCN)NC(=O)CCSCc2cccc(c2)CSCCNC(=O)[C@]2(C)CCCN2C(=O)[C@@H]1Cc1ccc(O)cc1 [Compound 111] (cyclo([Aib]H[NMeY][αMeP][X1]KG[Trp(5-F)][Trp(5-F)]))
100 to 1000 nM	C[C@@H]1NC(=O)CCSCc2cccc(c2)CSCCNC(=O)[C@@H]2CCCN2C(=O)[C@H](Cc2ccc3ccccc3c2)NC(=O)[C@H](C)NC(=O)[C@@H]2CCCN2C(=O)[C@H](Cc2c[nH]c3ccc(F)cc23)NC(=O)[C@H](Cc2cccc3ccccc23)NC(=O)[C@@H](C)NC1=O [Compound 079] (cyclo([1Nal][Trp(5-F)]PA[2Nal]P[X1]A[dA]))
100 to 1000 nM	CN1C(=O)[C@H](Cc2cnc[nH]2)NC(=O)[C@@H]2CCCN2C(=O)[C@H](Cc2c[nH]c3ccc(F)cc23)NC(=O)[C@H](CC2CCCCC2)NC(=O)CNC(=O)[C@H](CCCCN)NC(=O)CCSCc2cccc(c2)CSCCNC(=O)[C@]2(C)CCCN2C(=O)[C@@H]1Cc1ccc(O)cc1 [Compound 106] (cyclo([Cha][Trp(5-F)]PH[NMeY][αMeP][X1]KG))
